Data on 3 compounds can be found in US20040014972A1, “Arylpiperazine derivatives and their use as psychotropic agents” (priority 2000, published 2004).

The term melting point denotes the temperature of the solid-liquid transition. With `O=C(O)/C=C/C(=O)O.OC(CCCN1CCN(c2cccc3cccnc23)CC1)c1ccc(F)cc1` (stereo not drawn), the melting point is 145 to 146 °C.

Turning to `Cl.Cl.O=C(CCCN1CCN(c2cccc3[nH]ccc23)CC1)c1ccc(F)cc1`, the melting point was 233 to 234 °C.

Consider `Cl.Cl.Cl.O.O.O=C(CCCN1CCN(c2cccc3cccnc23)CC1)c1ccc(F)cc1` (hydrate or solvate), for which the melting point was in the range of 119 to 120 °C.
